{"source": "PubChem BioAssay (NCI)", "note": "Several values for one entry are separate records, joined by “and”; a condition that tells them apart may be missing. Identical values can stand only once.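 Each compound was tested at five concentrations against cells in 96-well plates for 48 hours. Here, GI50 denotes the concentration required for 50% inhibition of growth. At the TGI there is no net growth.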", "data": [{"tested_on": "HOP-62 NSCLC", "experiment": "NCI anticancer screen, dose series, 48 h", "values": [{"smiles": "O=C1/C(=C/c2cccc([N+](=O)[O-])c2)COc2ccc(O)cc21", "GI50": "3.21 µM", "TGI": "12.1 µM"}, {"smiles": "C[C@]12CC[C@H](O)CC1=CC[C@@H]1C2CC[C@]2(C)C(=O)N(N)C(=O)CC12", "note": "(some centres undefined)", "TGI": "> 100 µM"}, {"smiles": "CC(C)=CC(=O)C1c2cccc(O)c2C(=O)c2c(O)cc(C)cc21", "note": "(centres undefined)", "TGI": "7.87 µM"}, {"smiles": "O=C1C=C(Cl)C(=O)C(c2ccc(Cl)cc2)=C1", "TGI": "44 µM"}, {"smiles": "CCOc1ccc(NC(=O)C(=O)CC(=O)c2c[n+](=O)c3cc(C)c(C)cc3n2[O-])cc1", "TGI": "> 100 µM"}, {"smiles": "CN1C(=O)C(C)(C)C2(SC(C)(C)C2(C)C)N(C)C1=S", "note": "(centres undefined)", "TGI": "> 100 µM"}, {"smiles": "O=C1C(Cl)=C(Nc2cccc(Cl)c2)C(=O)N1Cc1ccc(Cl)cc1Cl", "GI50": "5.61 µM", "TGI": "22.8 µM"}, {"smiles": "O=C(/C=C/C12c3ccccc3C(c3ccccc31)C1C(=O)NC(=O)C12)c1ccncc1", "note": "(centres undefined)", "GI50": "2.4 µM", "TGI": "6.73 µM"}, {"smiles": "CC12CCC(O)CC1CCC1C2CCC2(C)C(C3=CC(=O)OC3)CCC12O", "note": "(centres undefined)", "TGI": "6.01 µM"}, {"smiles": "COc1ccc2c(c1)/C(=C/c1c(C)nc3sc(C)nn13)C(=O)N2", "GI50": "4.35 µM", "TGI": "61.9 µM"}, {"smiles": "Cc1ccc(C(=O)/C(=C/c2ccc([N+](=O)[O-])cc2)SCc2ccc(Cl)cc2)cc1", "GI50": "29.7 µM", "TGI": "> 100 µM"}, {"smiles": "O=C(Nc1ccc(Cl)c(Cl)c1)Nc1ccc(Cl)c(Cl)c1", "GI50": "3.02 µM and 5.73 µM", "TGI": "11.4 µM and 31.2 µM"}]}, {"tested_on": "MOLT-4 leukemia", "experiment": "NCI anticancer screen, dose series, 48 h", "values": [{"smiles": "O=C1/C(=C/c2cccc([N+](=O)[O-])c2)COc2ccc(O)cc21", "GI50": "2.05 µM", "TGI": "5.83 µM"}, {"smiles": "C[C@]12CC[C@H](O)CC1=CC[C@@H]1C2CC[C@]2(C)C(=O)N(N)C(=O)CC12", "note": "(some centres undefined)", "TGI": "> 100 µM"}, {"smiles": "CC(C)=CC(=O)C1c2cccc(O)c2C(=O)c2c(O)cc(C)cc21", "note": "(centres undefined)", "TGI": "20.7 µM"}, {"smiles": "O=C1C=C(Cl)C(=O)C(c2ccc(Cl)cc2)=C1", "TGI": "22.1 µM"}, {"smiles": "CCOc1ccc(NC(=O)C(=O)CC(=O)c2c[n+](=O)c3cc(C)c(C)cc3n2[O-])cc1", "TGI": "> 100 µM"}, {"smiles": "CN1C(=O)C(C)(C)C2(SC(C)(C)C2(C)C)N(C)C1=S", "note": "(centres undefined)", "TGI": "> 100 µM"}, {"smiles": "O=C1C(Cl)=C(Nc2cccc(Cl)c2)C(=O)N1Cc1ccc(Cl)cc1Cl", "TGI": "> 100 µM"}, {"smiles": "O=C(/C=C/C12c3ccccc3C(c3ccccc31)C1C(=O)NC(=O)C12)c1ccncc1", "note": "(centres undefined)", "GI50": "2.57 µM", "TGI": "9.17 µM"}, {"smiles": "CC12CCC(O)CC1CCC1C2CCC2(C)C(C3=CC(=O)OC3)CCC12O", "note": "(centres undefined)", "TGI": "> 100 µM"}, {"smiles": "COc1ccc2c(c1)/C(=C/c1c(C)nc3sc(C)nn13)C(=O)N2", "GI50": "2.64 µM", "TGI": "> 100 µM"}, {"smiles": "Cc1ccc(C(=O)/C(=C/c2ccc([N+](=O)[O-])cc2)SCc2ccc(Cl)cc2)cc1", "GI50": "0.471 µM", "TGI": "> 100 µM"}, {"smiles": "O=C(Nc1ccc(Cl)c(Cl)c1)Nc1ccc(Cl)c(Cl)c1", "GI50": "2.64 µM and 2.31 µM", "TGI": "10.2 µM and 6.6 µM"}]}, {"tested_on": "NCI-H522 lung", "experiment": "NCI anticancer screen, dose series, 48 h", "values": [{"smiles": "O=C1/C(=C/c2cccc([N+](=O)[O-])c2)COc2ccc(O)cc21", "GI50": "1.47 µM", "TGI": "3.02 µM"}, {"smiles": "C[C@]12CC[C@H](O)CC1=CC[C@@H]1C2CC[C@]2(C)C(=O)N(N)C(=O)CC12", "note": "(some centres undefined)", "TGI": "> 100 µM"}, {"smiles": "CC(C)=CC(=O)C1c2cccc(O)c2C(=O)c2c(O)cc(C)cc21", "note": "(centres undefined)", "TGI": "3.85 µM"}, {"smiles": "O=C1C=C(Cl)C(=O)C(c2ccc(Cl)cc2)=C1", "TGI": "47.4 µM"}, {"smiles": "CCOc1ccc(NC(=O)C(=O)CC(=O)c2c[n+](=O)c3cc(C)c(C)cc3n2[O-])cc1", "TGI": "> 100 µM"}, {"smiles": "CN1C(=O)C(C)(C)C2(SC(C)(C)C2(C)C)N(C)C1=S", "note": "(centres undefined)", "TGI": "> 100 µM"}, {"smiles": "O=C1C(Cl)=C(Nc2cccc(Cl)c2)C(=O)N1Cc1ccc(Cl)cc1Cl", "GI50": "0.265 µM", "TGI": "5.86 µM"}, {"smiles": "O=C(/C=C/C12c3ccccc3C(c3ccccc31)C1C(=O)NC(=O)C12)c1ccncc1", "note": "(centres undefined)", "GI50": "1.61 µM", "TGI": "3.74 µM"}, {"smiles": "CC12CCC(O)CC1CCC1C2CCC2(C)C(C3=CC(=O)OC3)CCC12O", "note": "(centres undefined)", "TGI": "4.9 µM"}, {"smiles": "COc1ccc2c(c1)/C(=C/c1c(C)nc3sc(C)nn13)C(=O)N2", "GI50": "0.574 µM", "TGI": "5.93 µM"}, {"smiles": "Cc1ccc(C(=O)/C(=C/c2ccc([N+](=O)[O-])cc2)SCc2ccc(Cl)cc2)cc1", "GI50": "1.64 µM", "TGI": "3.54 µM"}, {"smiles": "O=C(Nc1ccc(Cl)c(Cl)c1)Nc1ccc(Cl)c(Cl)c1", "GI50": "1.68 µM and 1.25 µM", "TGI": "5.67 µM and 3.03 µM"}]}, {"tested_on": "RXF 393 renal", "experiment": "NCI anticancer screen, dose series, 48 h", "values": [{"smiles": "O=C1/C(=C/c2cccc([N+](=O)[O-])c2)COc2ccc(O)cc21", "GI50": "1.73 µM", "TGI": "3.28 µM"}, {"smiles": "C[C@]12CC[C@H](O)CC1=CC[C@@H]1C2CC[C@]2(C)C(=O)N(N)C(=O)CC12", "note": "(some centres undefined)", "TGI": "> 100 µM"}, {"smiles": "CC(C)=CC(=O)C1c2cccc(O)c2C(=O)c2c(O)cc(C)cc21", "note": "(centres undefined)", "TGI": "4.39 µM"}, {"smiles": "O=C1C=C(Cl)C(=O)C(c2ccc(Cl)cc2)=C1", "TGI": "34 µM"}, {"smiles": "CCOc1ccc(NC(=O)C(=O)CC(=O)c2c[n+](=O)c3cc(C)c(C)cc3n2[O-])cc1", "TGI": "> 100 µM"}, {"smiles": "CN1C(=O)C(C)(C)C2(SC(C)(C)C2(C)C)N(C)C1=S", "note": "(centres undefined)", "TGI": "> 100 µM"}, {"smiles": "O=C1C(Cl)=C(Nc2cccc(Cl)c2)C(=O)N1Cc1ccc(Cl)cc1Cl", "GI50": "0.181 µM", "TGI": "3.83 µM"}, {"smiles": "O=C(/C=C/C12c3ccccc3C(c3ccccc31)C1C(=O)NC(=O)C12)c1ccncc1", "note": "(centres undefined)", "GI50": "1.74 µM", "TGI": "3.27 µM"}, {"smiles": "CC12CCC(O)CC1CCC1C2CCC2(C)C(C3=CC(=O)OC3)CCC12O", "note": "(centres undefined)", "TGI": "3.55 µM"}, {"smiles": "COc1ccc2c(c1)/C(=C/c1c(C)nc3sc(C)nn13)C(=O)N2", "GI50": "17.6 µM", "TGI": "> 100 µM"}, {"smiles": "Cc1ccc(C(=O)/C(=C/c2ccc([N+](=O)[O-])cc2)SCc2ccc(Cl)cc2)cc1", "GI50": "2.38 µM", "TGI": "7.03 µM"}, {"smiles": "O=C(Nc1ccc(Cl)c(Cl)c1)Nc1ccc(Cl)c(Cl)c1", "GI50": "2.81 µM and 2.57 µM", "TGI": "11.6 µM and 6.57 µM"}]}, {"tested_on": "SK-MEL-28 melanoma", "experiment": "NCI anticancer screen, dose series, 48 h", "values": [{"smiles": "O=C1/C(=C/c2cccc([N+](=O)[O-])c2)COc2ccc(O)cc21", "GI50": "2.02 µM", "TGI": "4.24 µM"}, {"smiles": "C[C@]12CC[C@H](O)CC1=CC[C@@H]1C2CC[C@]2(C)C(=O)N(N)C(=O)CC12", "note": "(some centres undefined)", "TGI": "> 100 µM"}, {"smiles": "CC(C)=CC(=O)C1c2cccc(O)c2C(=O)c2c(O)cc(C)cc21", "note": "(centres undefined)", "TGI": "9.04 µM"}, {"smiles": "O=C1C=C(Cl)C(=O)C(c2ccc(Cl)cc2)=C1", "TGI": "43.4 µM"}, {"smiles": "CCOc1ccc(NC(=O)C(=O)CC(=O)c2c[n+](=O)c3cc(C)c(C)cc3n2[O-])cc1", "TGI": "> 100 µM"}, {"smiles": "CN1C(=O)C(C)(C)C2(SC(C)(C)C2(C)C)N(C)C1=S", "note": "(centres undefined)", "TGI": "> 100 µM"}, {"smiles": "O=C1C(Cl)=C(Nc2cccc(Cl)c2)C(=O)N1Cc1ccc(Cl)cc1Cl", "GI50": "1.67 µM", "TGI": "14.2 µM"}, {"smiles": "O=C(/C=C/C12c3ccccc3C(c3ccccc31)C1C(=O)NC(=O)C12)c1ccncc1", "note": "(centres undefined)", "GI50": "2.1 µM", "TGI": "4.57 µM"}, {"smiles": "CC12CCC(O)CC1CCC1C2CCC2(C)C(C3=CC(=O)OC3)CCC12O", "note": "(centres undefined)", "TGI": "33.7 µM"}, {"smiles": "COc1ccc2c(c1)/C(=C/c1c(C)nc3sc(C)nn13)C(=O)N2", "GI50": "5.29 µM", "TGI": "> 100 µM"}, {"smiles": "Cc1ccc(C(=O)/C(=C/c2ccc([N+](=O)[O-])cc2)SCc2ccc(Cl)cc2)cc1", "GI50": "3.36 µM", "TGI": "14.7 µM"}, {"smiles": "O=C(Nc1ccc(Cl)c(Cl)c1)Nc1ccc(Cl)c(Cl)c1", "GI50": "3.24 µM and 4.13 µM", "TGI": "14.2 µM and > 100 µM"}]}]}
